According to patent publication US12622872B2, “Process for the preparation of sterile ophthalmic aqueous fluticasone propionate form a nanocrystals suspensions” (Nicox Ophthalmics, Inc., priority 2019, dated 2026):

Columns and labels:
[1] = In vitro dissolution test (compartment diffusion through dialysis membrane, sink condition); type: physicochemical
Description: Dissolution profiles of nanocrystals of Fluticasone propionate form A of two nanosuspensions of the invention and of Fluticasone propionate form 1 micronized were performed using a dissolution method.
The study was performed using a compartment diffusion analysis through a dialysis membrane and sink condition. The sink condition was achieved through the use of a receptor fluid containing 30 mM phosphate buffer, pH 7.4 with 5% HPβCD cyclodextrins and also by a complete replacement of the buffer every 24 hours to stay below the saturation point. The saturation point was estimated to be 5 μg/g under those experimental conditions and the measurements performed as well as the buffer replacement have shown a maximum concentration of 1.5 μg/g. The study was conducted at a temperature of 37° C. The details of the dissolution test method are provided below:
A 5-fold dilution with the formulation vehicle (placebo solution containing all the formulation excipients including the surfactants) of two 0.1% w/w Fluticasone propionate form A nanosuspensions was conducted to obtain a final concentration of 0.02% w/w Fluticasone propionate inside the dialysis device.
Fluticasone propionate form 1 micronized was suspended in the same phosphate buffer used in the receiving compartment of the dialysis system.
Fluticasone propionate release was carried at 1-2 RPM. […]
These aliquots were immediately centrifuged and the measurements were performed by HPLC

[2] = 14-day repeated dose study, plasma toxicokinetics; parameters: species or system Beagle dogs; conditions: dog, in vivo
Text: The purpose of this study was to evaluate the toxicokinetic of fluticasone propionate Form A nanosuspensions of the invention (see Table 10 below) administered via topical application directly to the rim (margin) of upper and lower eyelids of both eyes of Beagle dogs.
Fifty naïve Beagle dogs (25 males and 25 females), approximately 5-6 months old and weighing 5.7 to 8.8 kg for males and females at the outset of the study were assigned to treatment groups (groups 1-4) and to vehicle group.
Male and female Beagle dogs were dosed with fluticasone propionate at 1.6, 9.6, and 32 μg/day (bilateral QD topical application) or at 64 μg/day (bilateral BID topical application) via eye lid applicator directly to the upper and lower eyelids of both eyes once or twice daily (minimum of 6 hours between doses) for 14 consecutive days.
Blood for toxicokinetic evaluation was collected from all animals at selected time points on Days 1 and 14.

[3] = 1 h, second nanosuspension (Table 8)
[4] = 3 h, second nanosuspension (Table 8)
[5] = 5 h, second nanosuspension (Table 8)
[6] = 19 h, second nanosuspension (Table 8)

| Compound | % Dissolution Average % ([1]; 1 h) | % Dissolution Tube #1 ([1]; 1 h) | % Dissolution Tube #2 ([1]; 1 h) | % Dissolution Tube #3 ([1]; 1 h) | % Dissolution Average % ([1]; 3 h) | % Dissolution Tube #1 ([1]; 3 h) | % Dissolution Tube #2 ([1]; 3 h) | % Dissolution Tube #3 ([1]; 3 h) | % Dissolution Average % ([1]; 5 h) | % Dissolution Tube #1 ([1]; 5 h) | % Dissolution Tube #2 ([1]; 5 h) | % Dissolution Tube #3 ([1]; 5 h) | also measured |
| --- | --- | --- | --- | --- | --- | --- | --- | --- | --- | --- | --- | --- | --- |
| CCC(=O)O[C@]1(C(=O)SCF)[C@H](C)C[C@H]2[C@@H]3C[C@H](F)C4=CC(=O)C=C[C@]4(C)[C@@]3(F)[C@@H](O)C[C@@]21C [Fluticasone Propionate, fluticasone propionate] | – | – | – | – | – | – | – | – | – | – | – | – | maximum concentration in the receptor fluid ([1]; receptor fluid 30 mM phosphate buffer, pH 7.4 with 5% HPβCD, 37° C.): 1.5 µg/g; Dose dependence of exposure [2]: dose-dependent; Gender-related differences in exposure [2]: no discernable gender-related differences |
| CCC(=O)O[C@]1(C(=O)SCF)[C@H](C)C[C@H]2[C@@H]3C[C@H](F)C4=CC(=O)C=C[C@]4(C)[C@@]3(F)[C@@H](O)C[C@@]21C [Micronized Fluticasone propionate form 1, fluticasone propionate] | 0.0% | 0.0% | 0.0% | 0.0% | 0.7% | 0.8% | 0.5% | 0.9% | 2.6% | 2.9% | 1.9% | 3.0% | % Dissolution Tube #2 ([1]; 48 h): 44.0% |
| CCC(=O)O[C@]1(C(=O)SCF)[C@H](C)C[C@H]2[C@@H]3C[C@H](F)C4=CC(=O)C=C[C@]4(C)[C@@]3(F)[C@@H](O)C[C@@]21C [Fluticasone propionate form A nanocrystals] | 0.0% | 0.0% | 0.0% | 0.0% | 0.8% | 0.2% | 1.4% | 0.7% | 2.2% | 1.3% | 2.8% | 2.4% | % Dissolution Average % [1, 3]: 0.0%; % Dissolution Tube #1 [1, 3]: 0.0%; % Dissolution Tube #2 [1, 3]: 0.0%; % Dissolution Tube #3 [1, 3]: 0.0%; % Dissolution Average % [1, 4]: 0.7%; % Dissolution Tube #1 [1, 4]: 0.6%; % Dissolution Tube #2 [1, 4]: 0.5%; % Dissolution Tube #3 [1, 4]: 0.8%; % Dissolution Average % [1, 5]: 2.3%; % Dissolution Tube #1 [1, 5]: 2.4%; % Dissolution Tube #2 [1, 5]: 2.0%; % Dissolution Tube #3 [1, 5]: 2.6%; % Dissolution Average % [1, 6]: 19.0%; % Dissolution Tube #1 [1, 6]: 19.0%; % Dissolution Tube #2 ([1]; 24 h): 24.0%; % Dissolution Tube #3 ([1]; 72 h): 74.0%; dissolution profile compared with Fluticasone propionate form 1 micronized material ([1]; tables 7-9): similar |
